Reference: ChEMBL document CHEMBL3272039, “Potenial antitumor agents. 28. Deoxyribonucleic acid polyintercalating agents” (J Med Chem, 1978)

Columns and labels:
[1] = test system: Mus musculus; test: (§1) Toxicity in ip dosed BDF1 mouse allografted with mouse P388 cells administered qd for 5 days; assay type: organism-based; conditions: mouse, in vivo, 120 h
[2] = organism: Bos taurus; test: Displacement of ethidium bromide from calf thymus DNA by spectrofluorometric analysis
[3] = Lipophilic-hydrophilic balance, Rm of the compound by reversed-phase chromatographic analysis; assay type: physicochemical
[4] = test system: P388; test: Antitumor activity against mouse P388 cells allografted in ip dosed BDF1 mouse at optimum dose administered qd for 5 days relative to control; assay type: functional
[5] = as §1; assay type: organism-based; conditions: BDF1, mouse, in vivo

Row | SMILES | Activity [1] [mg/kg/day] | C50 [2] [µM] | Rm [3] | ILS [4] [%] | MTD at 120 h [5] [mg/kg/day]
1 | c1ccc2c(NCCCCCCCCCCNc3c4ccccc4nc4ccccc34)c3ccccc3nc2c1 | 2.5 | 0.09 | 0.65 | 33 | –
2 | CCN(CC)CCCC(C)Nc1c2ccc(Cl)cc2nc2ccc(OC)cc12.CS(C)(=O)=O (stereo unspecified) | – | 0.51 | – | >25 | 90
3 | COc1cc(NS(=O)(=O)CCCCS(=O)(=O)Nc2ccc(Nc3c4ccccc4nc4c(C(N)=O)cccc34)c(OC)c2)ccc1Nc1c2ccccc2nc2c(C(N)=O)cccc12.Cl.O | – | 0.068 | -0.64 | >25 | 11
4 | c1ccc2c(NCCNc3c4ccccc4nc4ccccc34)c3ccccc3nc2c1 | – | 0.7 | -0.44 | >25 | 5
5 | COc1cc(NS(=O)(=O)CCCCCCS(=O)(=O)Nc2ccc(Nc3c4ccccc4nc4ccccc34)c(OC)c2)ccc1Nc1c2ccccc2nc2ccccc12.Cl.O | – | 0.15 | 0.42 | >25 | 270
6 | CS(=O)(=O)Nc1ccc(Nc2c3ccccc3nc3ccccc23)c(OCCCCOc2cc(NS(C)(=O)=O)ccc2Nc2c3ccccc3nc3ccccc23)c1.Cl | – | 0.22 | 0.01 | >25 | > 500
7 | Cl.O.c1ccc(OCCCCCNc2ccnc3ccccc23)c(Nc2c3ccccc3nc3ccccc23)c1 | – | 1.9 | 0.23 | >25 | 17
8 | Cl.c1ccc(OCCCCOc2ccccc2Nc2ccnc3ccccc23)c(Nc2ccnc3ccccc23)c1 | – | 9.2 | -0.1 | >25 | 25
9 | Cl.O.c1ccc(OCCCCCCCNc2ccnc3ccccc23)c(Nc2c3ccccc3nc3ccccc23)c1 | – | 0.71 | 0.52 | >25 | 25
10 | Cl.O=S(=O)(CCCCS(=O)(=O)Nc1ccc(Nc2c3ccccc3nc3ccccc23)cc1)Nc1ccc(Nc2c3ccccc3nc3ccccc23)cc1 | – | 0.053 | -0.11 | >25 | > 500
11 | Cl.c1ccc(OCCCCCCCCCCOc2ccccc2Nc2c3ccccc3nc3ccccc23)c(Nc2c3ccccc3nc3ccccc23)c1 | – | 8 | 0.92 | >25 | > 500
12 | Cl.c1ccc(OCCCCCCCCCOc2ccccc2Nc2c3ccccc3nc3ccccc23)c(Nc2c3ccccc3nc3ccccc23)c1 | – | 3.3 | 0.85 | >25 | > 500
13 | Cl.c1ccc(OCCCCCCCCNc2ccnc3ccccc23)c(Nc2c3ccccc3nc3ccccc23)c1 | – | 0.6 | 0.59 | >25 | 31
14 | c1ccc2c(NCCCCCNc3c4ccccc4nc4ccccc34)c3ccccc3nc2c1 | 7.5 | 0.21 | -0.06 | 36 | –
15 | Cl.c1ccc(OCCCCCCCCOc2ccccc2Nc2c3ccccc3nc3ccccc23)c(Nc2c3ccccc3nc3ccccc23)c1 | – | 9 | 0.82 | >25 | > 500
16 | c1ccc2c(NCCCCCCCNc3c4ccccc4nc4ccccc34)c3ccccc3nc2c1 | 5 | 0.1 | 0.27 | 67 | –
17 | Cl.c1ccc(OCCCCCCCOc2ccccc2Nc2c3ccccc3nc3ccccc23)c(Nc2c3ccccc3nc3ccccc23)c1 | – | 3.8 | 0.75 | >25 | > 500
18 | Cl.c1ccc(OCCCCOc2ccccc2Nc2c3ccccc3nc3ccccc23)c(Nc2c3ccccc3nc3ccccc23)c1 | – | 0.8 | 0.53 | >25 | > 500

Row | SMILES | Activity [1] [mg/kg/day] | C50 [2] [µM] | Rm [3] | ILS [4] [%] | MTD at 120 h [5] [mg/kg/day]
19 | c1ccc2c(NCCCCCCNc3c4ccccc4nc4ccccc34)c3ccccc3nc2c1 | 2.5 | 0.15 | 0.13 | 53 | –
20 | c1ccc2c(NCCCCNc3c4ccccc4nc4ccccc34)c3ccccc3nc2c1 | – | 0.3 | -0.26 | >25 | 10
21 | CS(=O)(=O)Nc1ccc(Nc2c3ccccc3nc3c(C(N)=O)cccc23)c(OCCCCOc2cc(NS(C)(=O)=O)ccc2Nc2c3ccccc3nc3c(C(N)=O)cccc23)c1.Cl.O | – | 0.72 | -0.87 | >25 | 275
22 | Cl.O.c1ccc(OCCCCNc2ccnc3ccccc23)c(Nc2c3ccccc3nc3ccccc23)c1 | – | 2.6 | -0.07 | >25 | 20
23 | Cl.O.c1ccc(OCCCCCCNc2ccnc3ccccc23)c(Nc2c3ccccc3nc3ccccc23)c1 | – | 0.99 | 0.42 | >25 | 15
24 | c1ccc2c(NCCCCCCCCCCCCCCNc3c4ccccc4nc4ccccc34)c3ccccc3nc2c1 | – | 0.14 | 0.82 | >25 | –
25 | Cl.O.c1ccc(OCCOc2ccccc2Nc2c3ccccc3nc3ccccc23)c(Nc2c3ccccc3nc3ccccc23)c1 | – | 0.4 | 0.17 | >25 | 125
26 | Cl.O=S(=O)(CCCCCCNc1c2ccccc2nc2ccccc12)Nc1ccc(Nc2c3ccccc3nc3ccccc23)cc1 | – | 0.21 | 0.08 | >25 | 150
27 | Cl.c1ccc(OCCCCCOc2ccccc2Nc2c3ccccc3nc3ccccc23)c(Nc2c3ccccc3nc3ccccc23)c1 | – | 1.4 | 0.6 | >25 | > 500
28 | c1ccc2c(NCCCCCCCCNc3c4ccccc4nc4ccccc34)c3ccccc3nc2c1 | 2.5 | 0.11 | 0.44 | 55 | –
29 | c1ccc2c(NCCCCCCCCCCCCCCCCNc3c4ccccc4nc4ccccc34)c3ccccc3nc2c1 | – | 0.23 | 0.88 | >25 | –
30 | O.c1ccc(OCCCNc2ccnc3ccccc23)c(Nc2c3ccccc3nc3ccccc23)c1 | – | 2.7 | -0.19 | >25 | 50
31 | Cl.c1ccc(OCCCCCCOc2ccccc2Nc2c3ccccc3nc3ccccc23)c(Nc2c3ccccc3nc3ccccc23)c1 | – | 2.1 | 0.71 | >25 | > 500
32 | Br.O=S(=O)(CCCNc1ccnc2ccccc12)Nc1ccc(Nc2c3ccccc3nc3ccccc23)cc1 | – | 0.12 | -0.45 | >25 | 375
33 | c1ccc2c(NCCCCCCCCCCCCNc3c4ccccc4nc4ccccc34)c3ccccc3nc2c1 | – | 0.11 | 0.79 | >25 | 5
34 | CCN(CC)CCCC(C)Nc1ccnc2cc(Cl)ccc12.Cl (stereo unspecified) | – | 11 | – | >25 | 40
35 | Cl.Nc1c2ccccc2nc2ccccc12 [AMINACRINE HYDROCHLORIDE] | – | 8.1 | -0.08 | >25 | 12.5
